Measured values from patent US20120214842A1, “METHODS FOR TREATING DISEASES OF THE RETINA” (priority 2011, published 2012).

Test system: ABCA4/RDH8 mouse model
Test: Light-induced retinal degeneration in ABCA4/RDH8 mouse model (ERG, retinal histology, SLO autofluorescence)
Type: in vivo
Conditions: 10 mg/kg twice daily IP, 10,000 lux light for 30 min on day 3
Procedure: The invention is illustrated by the following example. The compound of the invention was tested with the following experimental protocol: (1) Mice are dosed twice daily at 10 mg/kg or vehicle, IP. (2) On day 3, mice are exposed to 10,000 lux light for 30 min, 2 h after the first dosing and 6 h before the last dosing. (3) On day 11 ERG measurements are taken. (4) On day 12, mice are sacrificed for retinal histology. The ERG functional assay measures the functional integrity of retina. […] In the model, autofluorescence appears as the retina degenerates.

For `Cn1cc(-c2ccncc2)c(-c2ccc(OCc3ccc4ccccc4n3)cc2)n1` [MP-10, 2-[4-(1-methyl-4-pyridin-4-yl-1H-pyrazol-3-yl)-phenoxymethyl]-quinoline], the “loss of ERG function (functional integrity of retina)” value (ERG on day 11, vs vehicle, FIG. 1) was “prevents loss of ERG function”, the “autofluorescence in retina measured by SLO” value (FIG. 3) was “reduces the appearance of autofluorescence” and the “photoreceptor cell loss (retinal histology grade; higher grade indicates more loss)” value (histology on day 12, FIG. 2) was “protects photoreceptor cell loss”.
